In patent publication US20110182949A1, “STABILIZED TRANSDERMAL DRUG DELIVERY SYSTEM” (priority 2008, published 2011):

Assay: Glass transition temperature (DSC)
Format: physicochemical
Conditions: amorphous drug, dispersed in patch or undispersed
Protocol: Example 1: To a glass jar Plastone 29/32 (12 g) and ethanol (7.56 g) were added. The admixture was mixed with a spatula, heated and sonicated in a water bath at 45° C. until a viscous solution was formed. To the solution was added scopolamine base (4.00 g). The admixture was mixed with a spatula, heated, sonicated and swirled until a clear viscous solution was formed. After the solution was cooled for a while, Dow Corning silicone adhesive 7-4302 (40.82 g, 60% solid) and ethyl acetate (8.34 g) were added. The material was quickly mixed at high shear to provide a cream-like uniform suspension. After air bubbles were removed by rolling overnight, the suspension was coated to a release liner, dried at room temperature for 5 minutes, in an oven set at 40° C. for 5 minutes and in an oven set at 85° C. for 5 minutes to form a thin layer of adhesive on release liner. A backing film Mediflex® 1502 was laminated to the adhesive side. Individual patches were die-cut and pouched.

| Structure (SMILES) | glass transition temperature (Tg) |
| --- | --- |
| O=C1CC[C@@]2(O)[C@H]3Cc4ccc(O)c5c4[C@@]2(CCN3CC2CC2)[C@H]1O5 [naltrexone] | 79.5 °C |
| CN1[C@@H]2C[C@@H](OC(=O)[C@H](CO)c3ccccc3)C[C@H]1[C@@H]1O[C@@H]12 [undispersed amorphous scopolamine, scopolamine] | about 10 °C |
